Patent publication US20250059171A1 (Hoffmann-La Roche Inc., priority 2021, published 2025)
Read-outs that look alike come from different tables or passages of the source.

Legend:
SARS-CoV 3CLpro = SARS-CoV 3CLpro (Severe acute respiratory syndrome coronavirus, UniProt P0C6X7); assay: biochemical
HCoV-229E 3CLpro = HCoV-229E 3CLpro (Human coronavirus 229E, UniProt P0C6X1); assay: HCoV-229E 3CLpro inhibition assay (FRET); type: biochemical
MERS-CoV 3CLpro = MERS-CoV 3CLpro (Middle East respiratory syndrome-related coronavirus, UniProt K9N7C7); assay: biochemical
Sequence of MERS-CoV 3CLpro (K9N7C7 3248-3553): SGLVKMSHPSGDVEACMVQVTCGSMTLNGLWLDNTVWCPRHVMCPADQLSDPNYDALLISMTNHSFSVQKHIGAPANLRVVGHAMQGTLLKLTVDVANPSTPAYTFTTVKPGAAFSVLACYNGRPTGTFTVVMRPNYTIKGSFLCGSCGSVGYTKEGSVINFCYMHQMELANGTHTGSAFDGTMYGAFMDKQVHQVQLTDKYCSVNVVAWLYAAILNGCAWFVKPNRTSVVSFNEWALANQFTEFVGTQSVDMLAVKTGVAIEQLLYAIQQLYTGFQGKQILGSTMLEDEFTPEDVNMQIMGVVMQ

SARS-CoV-2 3CLpro = SARS-CoV-2 3CLpro (Severe acute respiratory syndrome coronavirus 2, UniProt P0DTD1); assay: biochemical

Sequence of HCoV-229E 3CLpro (P0C6X1 2966-3267): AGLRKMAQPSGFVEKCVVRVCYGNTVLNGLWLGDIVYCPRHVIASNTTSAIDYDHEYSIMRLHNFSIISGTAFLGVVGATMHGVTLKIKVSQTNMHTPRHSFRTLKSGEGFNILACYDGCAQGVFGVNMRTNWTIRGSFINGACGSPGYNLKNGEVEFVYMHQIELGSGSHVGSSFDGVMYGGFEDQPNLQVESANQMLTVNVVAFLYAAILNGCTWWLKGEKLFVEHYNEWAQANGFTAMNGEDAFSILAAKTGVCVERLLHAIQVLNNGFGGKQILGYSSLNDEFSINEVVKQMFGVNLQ

Row | SMILES | IC50 (SARS-CoV 3CLpro) [nM] | IC50 (HCoV-229E 3CLpro) [nM] | IC50 (MERS-CoV 3CLpro) [nM] | IC50 (SARS-CoV-2 3CLpro) [nM] | IC50 (SARS-CoV-2 3CLpro; read-out: IC50 in SARS-CoV-2 3CLpro assay) [nM]
1 | CC(F)C(=O)N[C@H](C(=O)N1C[C@@H]2CCC[C@@H]2[C@H]1C(=O)NN(C[C@@H]1CCNC1=O)C(=O)[C@H](F)Cl)C(C)(C)C (mixture of isomers) [Example 36, Rac-2-fluoro-N-[(1S)-2,2-dimethyl-1-[(3S,3aS,6aR)-3-[[[(2R)-2-chloro-2-fluoro-acetyl]-[[(3S)-2-oxopyrrolidin-3-yl]methyl]amino]carbamoyl]-3,3a,4,5,6,6a-hexahydro-1H-cyclopenta[c]pyrrole-2-carbonyl]propyl]propanamide] | 12 | 34 | 93 | 7 | –
2 | CCC(C)(C)[C@H](NC(=O)C(F)F)C(=O)N1C[C@H]2[C@@H]([C@H]1C(=O)NN(C[C@@H]1CCNC1=O)C(=O)[C@@H](F)Cl)C2(C)C [Example 148, N-[(1S)-1-[(1R,2S,5S)-2-[[[(2S)-2-chloro-2-fluoro-acetyl]-[[(3S)-2-oxopyrrolidin-3-yl]methyl]amino]carbamoyl]-6,6-dimethyl-3-azabicyclo[3.1.0]hexane-3-carbonyl]-2,2-dimethyl-butyl]-2,2-difluoro-acetamide] | 20 | 30 | 130 | 13 | –
3 | CC(C)(C)[C@H](NC(=O)C(F)(F)F)C(=O)N1C[C@H]2[C@@H]([C@H]1C(=O)NN(Cc1cc[nH]n1)C(=O)[C@H](F)Cl)C2(C)C [Example 10, N-[(1S)-1-[(1R,2S,5S)-2-[[[(2R)-2-chloro-2-fluoro-acetyl]-(1H-pyrazol-3-ylmethyl)amino]carbamoyl]-6,6-dimethyl-3-azabicyclo[3.1.0]hexane-3-carbonyl]-2,2-dimethyl-propyl]-2,2,2-trifluoro-acetamide] | 373 | 1240 | 3040 | 21 | –
4 | CC[C@H](C)[C@H](NC(=O)C(F)(F)F)C(=O)N1C[C@H]2[C@@H]([C@H]1C(=O)NN(C[C@@H]1CCNC1=O)C(=O)[C@H](F)Cl)C2(C)C [Example 63, N-[(1S,2S)-1-[(1R,2S,5S)-2-[[[(2R)-2-chloro-2-fluoro-acetyl]-[[(3S)-2-oxopyrrolidin-3-yl]methyl]amino]carbamoyl]-6,6-dimethyl-3-azabicyclo[3.1.0]hexane-3-carbonyl]-2-methyl-butyl]-2,2,2-trifluoro-acetamide] | 11 | 18 | 60 | 9 | –
5 | CC(C)(C)[C@H](NC(=O)C(F)(F)F)C(=O)N1C[C@@H]2CCC[C@@H]2[C@H]1C(=O)NN(C[C@@H]1CCNC1=O)C(=O)[C@@H](F)Cl [Example 102, N-[(1S)-1-[(3S,3aS,6aR)-3-[[[(2S)-2-chloro-2-fluoro-acetyl]-[[(3S)-2-oxopyrrolidin-3-yl]methyl]amino]carbamoyl]-3,3a,4,5,6,6a-hexahydro-1H-cyclopenta[c]pyrrole-2-carbonyl]-2,2-dimethyl-propyl]-2,2,2-trifluoro-acetamide] | 16 | 112 | 207 | 12 | –
6 | CC[C@H](C)[C@H](NC(=O)C1CC1)C(=O)N1C[C@H]2[C@@H]([C@H]1C(=O)NN(C[C@@H]1CCNC1=O)C(=O)[C@H](F)Cl)C2(C)C [Example 57, N-[(1S,2S)-1-[(1R,2S,5S)-2-[[[(2R)-2-chloro-2-fluoro-acetyl]-[[(3S)-2-oxopyrrolidin-3-yl]methyl]amino]carbamoyl]-6,6-dimethyl-3-azabicyclo[3.1.0]hexane-3-carbonyl]-2-methyl-butyl]cyclopropanecarboxamide] | 13 | 20 | 62 | 11 | –
7 | CC(C)(C)[C@H](NC(=O)C(F)(F)F)C(=O)N1C[C@@H]2CCC[C@@H]2[C@H]1C(=O)NN(C[C@@H]1CCNC1=O)C(=O)[C@H](F)Cl [Example 4, N-[(1S)-1-[(3S,3aS,6aR)-3-[[[(2R)-2-chloro-2-fluoro-acetyl]-[[(3S)-2-oxopyrrolidin-3-yl]methyl]amino]carbamoyl]-3,3a,4,5,6,6a-hexahydro-1H-cyclopenta[c]pyrrole-2-carbonyl]-2,2-dimethyl-propyl]-2,2,2-trifluoro-acetamide] | 16 | 39 | 70 | – | 6
8 | CCC(CC)[C@H](NC(=O)C(F)F)C(=O)N1C[C@@H]2CCC[C@@H]2[C@H]1C(=O)NN(C[C@@H]1CCNC1=O)C(=O)[C@H](F)Cl [Example 136, N-[(1S)-1-[(3S,3aS,6aR)-3-[[[(2R)-2-chloro-2-fluoro-acetyl]-[[(3S)-2-oxopyrrolidin-3-yl]methyl]amino]carbamoyl]-3,3a,4,5,6,6a-hexahydro-1H-cyclopenta[c]pyrrole-2-carbonyl]-2-ethyl-butyl]-2,2-difluoro-acetamide] | 15 | 55 | 74 | 16 | –
9 | CC[C@H](C)[C@H](NC(=O)C1CC(F)(F)C1)C(=O)N1C[C@H]2[C@@H]([C@H]1C(=O)NN(C[C@@H]1CCNC1=O)C(=O)[C@@H](F)Cl)C2(C)C [Example 108, N-[(1S,2S)-1-[(1R,2S,5S)-2-[[[(2S)-2-chloro-2-fluoro-acetyl]-[[(3S)-2-oxopyrrolidin-3-yl]methyl]amino]carbamoyl]-6,6-dimethyl-3-azabicyclo[3.1.0]hexane-3-carbonyl]-2-methyl-butyl]-3,3-difluoro-cyclobutanecarboxamide] | 74 | 50 | 127 | 43 | –
10 | CC[C@H](C)[C@H](NC(=O)C1(F)CC1)C(=O)N1C[C@@H]2CCC[C@@H]2[C@H]1C(=O)NN(C[C@@H]1CCCNC1=O)C(=O)[C@H](F)Cl [Example 170a, N-[(1S,2S)-1-[(3S,3aS,6aR)-3-[[[(2R)-2-chloro-2-fluoro-acetyl]-[[(3S)-2-oxo-3-piperidyl]methyl]amino]carbamoyl]-3,3a,4,5,6,6a-hexahydro-1H-cyclopenta[c]pyrrole-2-carbonyl]-2-methyl-butyl]-1-fluoro-cyclopropanecarboxamide] | 25 | 107 | 276 | 16 | –
11 | CCC(CC)[C@H](NC(=O)C(F)F)C(=O)N1CC(C)(C)C[C@H]1C(=O)NN(C[C@@H]1CCNC1=O)C(=O)[C@H](F)Cl [Example 139, N-[(1S)-1-[(2S)-2-[[[(2R)-2-chloro-2-fluoro-acetyl]-[[(3S)-2-oxopyrrolidin-3-yl]methyl]amino]carbamoyl]-4,4-dimethyl-pyrrolidine-1-carbonyl]-2-ethyl-butyl]-2,2-difluoro-acetamide] | 18 | 35 | 139 | 14 | –
12 | CC[C@H](NC(=O)C(F)(F)F)C(=O)N1C[C@@H]2CCC[C@@H]2[C@H]1C(=O)NN(C[C@@H]1CCNC1=O)C(=O)[C@H](F)Cl [Example 72, N-[(1S)-1-[(3S,3aS,6aR)-3-[[[(2R)-2-chloro-2-fluoro-acetyl]-[[(3S)-2-oxopyrrolidin-3-yl]methyl]amino]carbamoyl]-3,3a,4,5,6,6a-hexahydro-1H-cyclopenta[c]pyrrole-2-carbonyl]propyl]-2,2,2-trifluoro-acetamide] | 11 | 23 | 58 | 8 | –
13 | CC[C@H](C)[C@H](NC(=O)C(C)C)C(=O)N1C[C@H]2[C@@H]([C@H]1C(=O)NN(C[C@@H]1CCNC1=O)C(=O)[C@@H](F)Cl)C2(C)C [Example 110, N-[(1S,2S)-1-[(1R,2S,5S)-2-[[[(2S)-2-chloro-2-fluoro-acetyl]-[[(3S)-2-oxopyrrolidin-3-yl]methyl]amino]carbamoyl]-6,6-dimethyl-3-azabicyclo[3.1.0]hexane-3-carbonyl]-2-methyl-butyl]-2-methyl-propanamide] | 33 | 37 | 96 | 24 | –
14 | CCC(C)(C)[C@H](NC(=O)[C@@H]1CC1(F)F)C(=O)N1C[C@@H]2CCC[C@@H]2[C@H]1C(=O)NN(C[C@@H]1CCNC1=O)C(=O)[C@H](F)Cl [Example 150, (1S)—N-[(1S)-1-[(3S,3aS,6aR)-3-[[[(2R)-2-chloro-2-fluoro-acetyl]-[[(3S)-2-oxopyrrolidin-3-yl]methyl]amino]carbamoyl]-3,3a,4,5,6,6a-hexahydro-1H-cyclopenta[c]pyrrole-2-carbonyl]-2,2-dimethyl-butyl]-2,2-difluoro-cyclopropanecarboxamide] | 16 | 33 | 63 | 11 | –
15 | CC[C@H](C)[C@H](NC(=O)[C@@H](F)Cl)C(=O)N1C[C@H]2[C@@H]([C@H]1C(=O)NN(C[C@H]1CCCNC1=O)C(=O)[C@@H](F)Cl)C2(C)C [Example 195, (2S)-2-chloro-N-[(1S,2S)-1-[(1R,2S,5S)-2-[[[(2S)-2-chloro-2-fluoro-acetyl]-[[(3R)-2-oxo-3-piperidyl]methyl]amino]carbamoyl]-6,6-dimethyl-3-azabicyclo[3.1.0]hexane-3-carbonyl]-2-methyl-butyl]-2-fluoro-acetamide] | 51 | 29 | 112 | 28 | –
16 | CC[C@H](C)[C@H](NC(=O)C1(F)CC1)C(=O)N1C[C@H]2[C@@H]([C@H]1C(=O)NN(C[C@@H]1CCCNC1=O)C(=O)[C@H](F)Cl)C2(C)C [Example 166a, N-[(1S,2S)-1-[(1R,2S,5S)-2-[[[(2R)-2-chloro-2-fluoro-acetyl]-[[(3S)-2-oxo-3-piperidyl]methyl]amino]carbamoyl]-6,6-dimethyl-3-azabicyclo[3.1.0]hexane-3-carbonyl]-2-methyl-butyl]-1-fluoro-cyclopropanecarboxamide] | 18 | 47 | 229 | 13 | –
